Counter-ions that a name gives are not always drawn. Like-named read-outs stand apart in the source and are kept apart here.
Tests used:
[1] = system: reverse passive Arthus reaction (RPA) in rats; assay: Reverse passive Arthus reaction (RPA) in rats; format: in vivo, Charles Foster rats of both sexes; conditions: one hour before RPA, edema vs untreated control; for % inhibition: hydrochloride
Description: Charles Foster rats of both sexes, weighing 150-180 g, were sorted into groups of six animals each. 24 hours before the initiation of the RPA, the rats were shaved from the mid-dorsal region and fasted overnight. The test compounds were administered orally one hour before inducing the Arthus reaction. The RPA reaction was induced by intradermal injection of 0.1 ml of appropriately diluted rabbit anti-BSA serum. Immediately after the intradermal exposure, each rat received 0.5 ml of 0.4% bovine serum albumin intraveneously. Four hours after the intradermal challenge, each group of animals was killed by cervical dislocation. The full thickness of the skin was removed from the back of each animal, and a 12 mm diameter disk was punched out with a metal punch from the site of the antiserum injection. The wet weight of each skin site was determined as soon as possible. The edema caused by the RPA was measured as the difference (expressed in mg) between the wet weight of the site injected with antibody and that injected with normal rabbit serum. The results are expressed as the percentage inhibition or potentiation of the edema by the compound as compared with the edema induced in the untreated control animals.

[2] = system: carrageenin-induced paw edema in rats; assay: Systemic anti-inflammatory action on carrageenin-induced paw edema in rats; format: in vivo, male Charles Foster rats; conditions: decrease in paw volume, 3 and 6 hours after carrageenin, from dose/response curve
Description: Male Charles Foster rats (120-150 g) were fasted for 18 hours, with water ad libitum. The test compound dissolved in distilled water was administered orally. The control group received distilled water. 0/05 ml of 0.5% carrageenin suspension was injected subcutaneously into the plantar region of the left hind paw. Using a Maclab differential volume meter, the paw volume was determined before the carrageenin injection and 3 and 6 hours after the injection. The percentage decrease in paw volume was calculated by the following equation: [formula] The ED50 value was calculated from the dose/response curve. Six animals were used for each group. The results with representative compounds according to the invention and their salts are listed in Table 4, the substituents relating to the following formula Ia: [drawing 11]

[3] = Rattus norvegicus, po, 4 h, dose 1.25 mg/kg p.o.
[4] = Rattus norvegicus, po, 4 h, dose 2.5 mg/kg p.o.
[5] = Rattus norvegicus, po, 4 h, dose 5.0 mg/kg p.o.
[6] = Rattus norvegicus, po, 4 h, dose 10.0 mg/kg p.o.
[7] = Rattus norvegicus, po, 4 h, dose 20.0 mg/kg p.o.
[8] = Rattus norvegicus, po, read-out: ED50

Compound	inhibition in vivo at 1.25 mg/kg [1, 3] [%]	inhibition in vivo at 2.5 mg/kg [1, 4] [%]	inhibition in vivo at 5 mg/kg [1, 5] [%]	inhibition in vivo at 10 mg/kg [1, 6] [%]	inhibition in vivo at 20 mg/kg [1, 7] [%]	ED50 [2, 8] [mg/kg]	also measured
CCc1cc(=O)c2c(O)cc(O)c(C3CCN(C)CC3O)c2o1 (mixture of isomers) [(±) C2 H5 H CH3 HCl.1.5 H2 O, cis-5,7-Dihydroxy-2-ethyl-8-[4'-(3'-hydroxy-1'-methyl)-piperidinyl]-4H-1-benzopyran-4-one hydrochloride]	16	34.3	41.6	43.6	77.1	10.5	
CCCc1cc(=O)c2c(O)cc(O)c(C3CCN(C)CC3O)c2o1 (mixture of isomers) [(±) n-C3 H7 H CH3 HCl.H2 O, cis-5,7-Dihydroxy-2-n-propyl-8-[4'-(3'-hydroxy-1'-methyl)-piperidinyl]-4H-1-benzopyran-4-one hydrochloride]	26	32	44	55	65	6.8	
CN1CC[C@H](c2c(O)cc(O)c3c(=O)cc(-c4ccc(N)cc4)oc23)[C@H](O)C1 (racemic) [(±) 4-Aminophenyl H H 2HCl, 2 H2 O, cis-(±)-2-(4-aminophenyl)-5,7-dihydroxy-8-[4'-(3'-hydroxy-1'-methyl)-piperidinyl]-4H-1-benzopyran-4-one]							ED50 ([2]; p.o.): 7.4 mg/kg
CN1CC[C@H](c2c(O)cc(O)c3c(=O)cc(-c4ccc(Cl)cc4)oc23)[C@H](O)C1 (racemic) [(±) 4-chlorophenyl H H HCl, 1.5 H2 O, cis-(±)-2-(4-chlorophenyl)-5,7-dihydroxy-8-[4'-(3'-hydroxy-1'-methyl)-piperidinyl]-4H-1-benzopyran-4-one]							ED50 ([2]; p.o.): 7.0 mg/kg
CN1CC[C@H](c2c(O)cc(O)c3c(=O)cc(-c4ccccn4)oc23)[C@H](O)C1 (relative stereo) [(±) 2-Pyridyl H CH3 HCl.1.5 H2 O, cis-(±)-5,7-dihydroxy-2-(2-pyridyl)-8-[4'-(3'-hydroxy-1'-methyl)-piperidinyl]-4H-1-benzopyran-4-one]	0	12	43	90	90	5.7	
Cc1cc(=O)c2c(O)cc(O)c([C@H]3CCN(C)C[C@H]3O)c2o1 (relative stereo) [(±) CH3 H CH3 HCl, cis-5,7-Dihydroxy-2-methyl-8-[4'-(3'-hydroxy-1'-methyl)-piperidinyl]-4H-1-benzopyran-4-one hydrochloride]	28.8	31.8	29.8	35.8	39.2	12.5	
CN1CC[C@H](c2c(O)cc(O)c3c(=O)cc(-c4ccccc4)oc23)[C@H](O)C1 (relative stereo) [(±) Phenyl H CH3 HCl.2H2 O, cis-(±)-5,7-dihydroxy-2-phenyl-8-[4'-(3'-hydroxy-1'-methyl)-piperidinyl]-4H-1-benzopyran-4-one]	57.5	55.6	68.1	90.6	95.7	5.7	
CN1CC[C@H](c2c(O)cc(O)c3c(=O)cc(-c4ccccc4Cl)oc23)[C@H](O)C1 (relative stereo) [(±) o-Chlorophenyl H CH3 HCl.H2 O, cis-(±)-2-(2-chlorophenyl)-5,7-dihydroxy-8-[4'-3'-hydroxy-1'-methyl)-piperidinyl]-4H-benzopyran-4-one]						2.7	inhibition in vivo at 1 mg/kg ([1]; Rattus norvegicus, po, 4 h, dose 1.0 mg/kg p.o.): 37%; inhibition in vivo at 2 mg/kg ([1]; Rattus norvegicus, po, 4 h, dose 2.0 mg/kg p.o.): 60%; inhibition in vivo at 4 mg/kg ([1]; Rattus norvegicus, po, 4 h, dose 4.0 mg/kg p.o.): 80%
CN1CC[C@H](c2c(O)cc(O)c3c(=O)cc(-c4ccccc4F)oc23)[C@H](O)C1 (relative stereo) [(±) o-Fluorophenyl H CH3 HCl.2H2 O, cis-(±)-5,7-dihydroxyl-2-(2-fluorophenyl)-8-[4'-(3'-hydroxy-1'-methyl)-piperidinyl]-4H-1-benzopyran-4-one]	0	11.5	52.7			7.6	
CN1CC[C@H](c2c(O)cc(O)c3c(=O)cc(-c4ccc(F)cc4)oc23)[C@H](O)C1 (relative stereo) [(±) p-Fluorophenyl H CH3 HCl.H2 O, cis-(±)-5,7-dihydroxy-2-(4-fluorophenyl)-8-[4'-(3'-hydroxy-1'-methyl)-piperidinyl]-4H-1-benzopyran-4-one]	24.4	37.4	61.5	90	86.2	7.4	
CN1CC[C@H](c2c(O)cc(O)c3c(=O)cc(-c4ccc(Cl)cc4Cl)oc23)[C@H](O)C1 (relative stereo) [cis-(±)-2-(2,4-dichlorophenyl)-5,7-dihydroxy-8-[4'-(3'-hydroxy-1'-methyl)-piperidinyl]-4H-1-benzopyran-4-one]	0	41.7	57.2	49.5	76.1	5.7	
Cc1cc(=O)c2c(O)cc(O)c([C@H]3CCN(C)C[C@H]3O)c2o1 (single isomer, unassigned) [(+) CH3 H CH3 HCl, (+)-cis-5,7-Dihydroxy-2-methyl-8-[4'-(3'-hydroxy-1'-methyl)-piperidinyl]-4H-1-benzopyran-4-one hydrochloride]	40.5	48.8	57.1	50.4		9.4	% inhibition ([1]; dose 20.0 mg/kg p.o., 20 mg/kg): 43.24%
CN1CC[C@H](c2c(O)cc(O)c3c(=O)cc(-c4ccccc4Cl)oc23)[C@H](O)C1 (single isomer, unassigned) [(-) 2-Chlorophenyl H CH3 HCl.1,5 H2 O, cis-(-)-2-(2-chlorophenyl)-5,7-dihydroxy-8-[4'-(3'-hydroxy-1'-methyl)-piperidinyl]-4H-1-benzopyran-4-one]	34	48.8	70	98.8		2.4	
Cc1cc(=O)c2c(O)cc(O)c([C@H]3CCN(C)C[C@H]3O)c2o1 (single isomer, unassigned) [(-) CH3 H CH3 HCl, (-)-cis-5,7-Dihydroxy-2-methyl-8-[4'-(3'-hydroxy-1'-methyl)-piperidinyl]-4H-1-benzopyran-4-one hydrochloride]							% inhibition ([1]; dose 1.25 mg/kg p.o., 1.25 mg/kg): 40.31%; % inhibition ([1]; dose 2.5 mg/kg p.o., 2.5 mg/kg): 39.11%; % inhibition ([1]; dose 5.0 mg/kg p.o., 5 mg/kg): 40.13%; % inhibition ([1]; dose 10.0 mg/kg p.o., 10 mg/kg): 45.17%; % inhibition ([1]; dose 20.0 mg/kg p.o., 20 mg/kg): 64.73%; ED50 ([2]; p.o., hydrochloride): 9.0 mg/kg
CN1CC[C@H](c2c(O)cc(O)c3c(=O)cc(-c4ccccc4)oc23)[C@H](O)C1 (single isomer, unassigned) [(-) Phenyl H CH3 HCl.1/2H2 O, cis-(-)-5,7-dihydroxy-2-phenyl-8-[4'-(3'-hydroxy-1'-methyl)-piperidinyl]-4H-1-benzopyran-4-one]		26.2	64.5	92.2		1.3	
Cc1cc(=O)c2c(O)cc(O)c(C3CCN(CC4CC4)CC3O)c2o1 (single isomer, unassigned; (-)) [(-) CH3 H [drawing 12] HCl.H2 O, cis-(-)-5,7-Dihydroxy-2-methyl-8-[4'-(1'-cyclopropylmethyl-3'-hydroxy)-piperidinyl]-4H-1-benzopyran-4-one hydrochloride]		23	49.7		74	10	
